Patent US20190060428A1, “FORMULATIONS FOR NEOPLASIA VACCINES AND METHODS OF PREPARING THEREOF” (The Broad Institue Inc., priority 2015, published 2019)

What was measured:
Format in all cases: physicochemical
[1] = Peptide diluent matrix (precipitation of DMSO dissolved peptides in various liquids); parameters: key to Precipitation in diluent: Liposome / Precipitation in diluent: PBS pH 7.4 / Precipitation in diluent: Water / Precipitation in diluent: 10% Sucrose / Precipitation in diluent: D5W (5% Dextrose USP Grade Inj): P = precipitation; NP = no precipitation; conditions: for Precipitation in diluent: 10% Sucrose: 10-20 μL DMSO dissolved peptide added to 10% Sucrose; for Precipitation in diluent: D5W (5% Dextrose USP Grade Inj): 10-20 μL DMSO dissolved peptide added to D5W; for Precipitation in diluent: Liposome: 10-20 μL DMSO dissolved peptide added to Liposome; for Precipitation in diluent: PBS pH 7.4: 10-20 μL DMSO dissolved peptide added to PBS pH 7.4; for Precipitation in diluent: Water: 10-20 μL DMSO dissolved peptide added to Water
Procedure: Additional peptide solubility conditions were tested. Peptides CS6709, CS6712, CS6720, CS6726, and CS6783 were weighed at approximately 10 mg each. The peptides were then dissolved in approximately 200 μL USP grade DMSO to obtain a 50 mg/mL concentration for each peptide. […] The sample appeared to be cloudy. Additional 50 μL increments of DMSO were added to Peptide CS6709 up to 400 μL; for a total of 600 μL of DMSO. […] To dilute the peptides to 400 μg, a PBS pH 7.4 solution without potassium was prepared. All 5 DMSO peptide samples (50 mg/mL) were placed in a single vial for dilution to 400 μg/mL. Each DMSO peptide was added to the vial at 40 μL, except for CS6709 which was at a concentration of 16.67 mg/mL. The volume of CS6709 added to the single vial was 120 μL. The samples were diluted to 400 μg by adding 4.72 mL PBS pH 7.4. Upon addition of the PBS pH 7.4, it was observed that one or more of the peptides had precipitated out. To determine which of the peptides precipitated, Applicants followed the matrix in Table 5 below using very small amounts (10-20 μL) of the DMSO dissolved peptides and adding these peptides to the various liquids.

[2] = Direct dissolution of peptides in D5W without DMSO; conditions: <1 mg peptide
[3] = pH of peptide solutions in DMSO/D5W, with succinate, and with Hiltonol
[4] = Solubility of peptides in DMSO (50 mg/ml)
Procedure: The only problematic peptides are very hydrophobic peptides. Additional peptide solubility conditions were tested. Peptides CS6709, CS6712, CS6720, CS6726, and CS6783 were weighed at approximately 10 mg each. The peptides were then dissolved in approximately 200 μL USP grade DMSO to obtain a 50 mg/mL concentration for each peptide. […] The sample appeared to be cloudy. Additional 50 μL increments of DMSO were added to Peptide CS6709 up to 400 μL; for a total of 600 μL of DMSO.

Row | Substance | Precipitation in diluent: 10% Sucrose [1] | Precipitation in diluent: D5W (5% Dextrose USP Grade Inj) [1] | Precipitation in diluent: Liposome [1] | Precipitation in diluent: PBS pH 7.4 [1] | Precipitation in diluent: Water [1] | Dissolution directly in D5W without using DMSO [2] | pH of peptides in DMSO/D5W [3] | Precipitation when PBS pH 7.4 added as diluent to the peptide mixture ([1]; dilution to 400 μg/mL) | Concentration at which peptide went into solution (clear) in DMSO [4] [µg/mL] | Dissolution in DMSO at 50 mg/mL ([4]; 10.02 mg in 200 μL DMSO)
1 | H-SPTEPSTKLPGFDSCGNTEIAERKIKRIYGGFK-OH [CS6720] | NP | NP | NP | NP | NP | could be dissolved directly in D5W |  |  |  | 
2 | H-LLTDRNTSGTTFTLLGVSDYPELQVPLFLVFLA-OH [CS6783] | NP | NP | P | P | NP | could not be dissolved | 3.96 | precipitate |  | 
3 | H-LTDLPGRIRVAPQQNDLDSPQQISISNAE-OH [CS6709] | NP | NP | NP | NP | NP | could be dissolved directly in D5W |  |  | 16670 | did not fully dissolve
4 | H-LKDSNSWPPSNKRGFDTEDAHKSNATPVP-OH [CS6712] | NP | NP | NP | NP | NP | could be dissolved directly in D5W |  |  |  | 
5 | H-DSAVDKGHPNRSALSLTPGLRIGPSGIPQAGLG-OH [CS6726] | NP | NP | NP | NP | NP | could be dissolved directly in D5W |  |  |  | 
